Experimental findings from EPA's ToxValDB 9.5 (doi:10.2903/j.efsa.2008.147r) are described below.

One data set has as its system Aphidius rhopalosiphi. To be noted: not reported.
In another data set the test system is Apis mellifera. Particulars: acute; duration: 48 hours; dermal; mortality.
A further data set concerns Canidae. To be noted: chronic, oral, Dog Other, clinical signs.
The next data set deals with Daphnia magna. Particulars: chronic/long-term; duration: 21 days; reproduction.

Take `CC[C@H](C)[C@H]1O[C@]2(C=C[C@@H]1C)C[C@@H]1C[C@@H](C/C=C(\C)[C@@H](O[C@H]3C[C@H](OC)[C@@H](O[C@H]4C[C@H](OC)[C@@H](O)[C@H](C)O4)[C@H](C)O3)[C@@H](C)/C=C/C=C3\CO[C@@H]4[C@H](O)C(C)=C[C@@H](C(=O)O1)[C@]34O)O2.CO[C@H]1C[C@H](O[C@H]2[C@H](C)O[C@@H](O[C@@H]3/C(C)=C/C[C@@H]4C[C@@H](C[C@]5(C=C[C@H](C)[C@@H](C(C)C)O5)O4)OC(=O)[C@@H]4C=C(C)[C@@H](O)[C@H]5OC/C(=C\C=C\[C@@H]3C)[C@]54O)C[C@@H]2OC)O[C@@H](C)[C@@H]1O` [Abamectin]: the LD50 in the data set on Anas platyrhynchos (acute, oral, unspecified, mortality) is no more than 77 mg/kg-day; with Apis mellifera, 0.0022 µg/piece; in the data set with Rattus norvegicus (acute, oral, mortality) it was 8.7 mg/kg-day. Further, the NOEC in the data set with Anas platyrhynchos (reproductive, M) was 1.33 mg/kg-day; in the data set on Daphnia magna it was 1e-05 mg/L; in the data set with Oncorhynchus mykiss (chronic/long-term, duration: 28 days) it was 0.00052 mg/L; in the data set on Rattus norvegicus (chronic), 0.12 mg/kg-day; in the data set with Tagia sp. (chronic/long-term), greater than 0.72 mg/kg. In addition, the LC50 turned out to be 48.6 mg/kg-day with Anas platyrhynchos (short-term, oral, feed, mortality); 3.6 ng/mL in the data set on Oncorhynchus mykiss (acute, duration: 96 hours, mortality); 33 mg/kg in the data set with Tagia sp. (acute, duration: 14 days, mortality). Moreover, the LEL in the data set on Aphidius rhopalosiphi (mortality) and in the data set with Aphidius rhopalosiphi (reproduction) was 4.32 g/ha in each case. Further, the NOAEL (in general, the highest tested level that showed no adverse finding) stood at 0.25 mg/kg-day in the data set on Canidae (duration: 18 weeks); 0.25 mg/kg-day with Canidae (duration: 53 weeks); 0.5 mg/kg-day in the data set with Rattus norvegicus (acute, clinical signs).
